These compounds were tested on EGFR (del19/T790M/C797S) (assay: HTRF inhibitory activity assay against EGFR (del19/T790M/C797S) enzyme).
Format: biochemical
Method: Inhibitory Activity Assay of the Compounds Disclosed Herein Against EGFR (del19/T790M/C797S), EGFR (L858R/T790M/C797S) or EGFR (WT) Enzymes
The inhibitory effects of the compounds against EGFR (del19/T790M/C797S), EGFR (L858R/T790M/C797S) or EGFR (WT) enzyme activity was determined by using HTRF. The procedures are as follows:
The WT or mutant EGFR proteins were incubated with a serially diluted compounds at 28° C. for 10 min followed by addition of biotin-labeled general tyrosine kinase (TK) substrate and ATP. The mixture was incubated at room temperature for 40 min for reaction. After the termination of the reaction, an Eu3+-Cryptate-labeled antibody against TK and streptavidin-XL665 were added and the mixture was incubated at room temperature for 60 min. The luminescences at 615 nm and 665 nm were detected and the ratio of 665/615 was calculated to quantify the level of TK substrate phosphorylation. Inhibition % and IC50 of the compounds were calculated relative to the control group.

Structure (SMILES) | EGFR (del19/T790M/C797S) inhibition (%) (0.3 nM compound)
CN1CCN(C2CCN(c3ccc(Nc4nc(NC5CC6(CCOCC6)C5)c(-c5ccccn5)nc4C(N)=O)cc3)CC2)CC1 [compound 271] | ++ (++ indicates an inhibition from 20% to 50%)
Cc1cc(Nc2nc(NC3CC4(CCOCC4)C3)c(-c3ccncc3)nc2C(N)=O)ccc1N1CCC(N2CCN(C)CC2)CC1 [compound 379] | ++ (++ indicates an inhibition from 20% to 50%)
CN1CCN(C2CCN(c3ccc(Nc4nc(NC5CCOCC5)c(-c5ccnc6[nH]ccc56)nc4C(N)=O)cc3F)CC2)CC1 [compound 520] | +++ (+++ indicates an inhibition greater than 50%.)
CC(C)Nc1nc(Nc2ccc(N3CCC(N4CCN(C)CC4)CC3)c(F)c2)c(C(N)=O)nc1-c1cccc2[nH]ccc12 [compound 530] | +++ (+++ indicates an inhibition greater than 50%.)
CN1CCN(C2CCN(c3ccc(Nc4nc(NC5CC5)c(-c5cccc6[nH]ccc56)nc4C(N)=O)cc3F)CC2)CC1 [compound 531] | +++ (+++ indicates an inhibition greater than 50%.)
CN1CCN(C2CCN(c3ccc(Nc4nc(N[C@H]5C[C@H](O)C5)c(-c5cccc6[nH]ccc56)nc4C(N)=O)cc3F)CC2)CC1 [compound 534] | +++ (+++ indicates an inhibition greater than 50%.)
CN1CCN(C2CCN(c3ccc(Nc4nc(NCC(C)(C)O)c(-c5cccc6[nH]ccc56)nc4C(N)=O)cc3F)CC2)CC1 [compound 537] | +++ (+++ indicates an inhibition greater than 50%.)
CN1CCN(C2CCN(c3ccc(Nc4nc(NC5COC5)c(-c5cccc6[nH]ccc56)nc4C(N)=O)cc3F)CC2)CC1 [compound 595] | +++ (+++ indicates an inhibition greater than 50%.)
CN1CCN(C2CCN(c3ccc(Nc4nc(NC5COC5)c(-c5ccnc6[nH]ccc56)nc4C(N)=O)cc3)CC2)CC1 [compound 596] | +++ (+++ indicates an inhibition greater than 50%.)
CC(C)Nc1nc(Nc2ccc(N3CCC(N4CCN(C)CC4)CC3)cc2)c(C(N)=O)nc1-c1ccnc2[nH]ccc12 [compound 609] | +++ (+++ indicates an inhibition greater than 50%.)
CN1CCN(C2CCN(c3ccc(Nc4nc(NC5CC5)c(-c5ccnc6[nH]ccc56)nc4C(N)=O)cc3)CC2)CC1 [compound 610] | +++ (+++ indicates an inhibition greater than 50%.)
CN1CCN(C2CCN(c3ccc(Nc4nc(N[C@H]5C[C@@H](O)C5)c(-c5cc[nH]n5)nc4C(N)=O)cc3)CC2)CC1 [compound 614] | +++ (+++ indicates an inhibition greater than 50%.)
CN1CCN(C2CCN(c3ccc(Nc4nc(N[C@H]5C[C@H](O)C5)c(-c5cc[nH]n5)nc4C(N)=O)cc3)CC2)CC1 [compound 615] | +++ (+++ indicates an inhibition greater than 50%.)
CN1CCN(C2CCN(c3ccc(Nc4nc(NC5CCC(O)C5)c(-c5cc[nH]n5)nc4C(N)=O)cc3)CC2)CC1 (stereo not shown) [compound 617] | ++ (++ indicates an inhibition from 20% to 50%)
CN1CCN(C2CCN(c3ccc(Nc4nc(NC5CCCC5O)c(-c5cc[nH]n5)nc4C(N)=O)cc3)CC2)CC1 (stereo not shown) [compound 618] | ++ (++ indicates an inhibition from 20% to 50%)
CN1CCN(C2CCN(c3ccc(Nc4nc(NC5CCOCC5)c(-c5cc[nH]n5)nc4C(N)=O)cc3F)CC2)CC1 [compound 619] | ++ (++ indicates an inhibition from 20% to 50%)
CN1CCN(C2CCN(c3ccc(Nc4nc(N[C@H]5C[C@@H](O)C5)c(-c5cc[nH]n5)nc4C(N)=O)cc3F)CC2)CC1 [compound 620] | ++ (++ indicates an inhibition from 20% to 50%)
CN1CCN(C2CCN(c3ccc(Nc4nc(N[C@H]5C[C@H](O)C5)c(-c5cc[nH]n5)nc4C(N)=O)cc3F)CC2)CC1 [compound 621] | +++ (+++ indicates an inhibition greater than 50%.)
CC(C)Nc1nc(Nc2ccc(N3CCC(N4CCN(C)CC4)CC3)c(F)c2)c(C(N)=O)nc1-c1cc[nH]n1 [compound 622] | +++ (+++ indicates an inhibition greater than 50%.)
CN1CCN(C2CCN(c3ccc(Nc4nc(NC5CCC(O)C5)c(-c5cc[nH]n5)nc4C(N)=O)cc3F)CC2)CC1 (stereo not shown) [compound 623] | +++ (+++ indicates an inhibition greater than 50%.)

Structure (SMILES) | EGFR (del19/T790M/C797S) inhibition (%) (0.3 nM compound)
CN1CCN(C2CCN(c3ccc(Nc4nc(NC5CCCC5O)c(-c5cc[nH]n5)nc4C(N)=O)cc3F)CC2)CC1 (stereo not shown) [compound 624] | ++ (++ indicates an inhibition from 20% to 50%)
CN1CCN(C2CCN(c3ccc(Nc4nc(NC5CC5)c(-c5cc[nH]n5)nc4C(N)=O)cc3)CC2)CC1 [compound 625] | +++ (+++ indicates an inhibition greater than 50%.)
CN1CCN(C2CCN(c3ccc(Nc4nc(NC5CC5)c(-c5cc[nH]n5)nc4C(N)=O)cc3F)CC2)CC1 [compound 626] | +++ (+++ indicates an inhibition greater than 50%.)
CN1CCN(C2CCN(c3ccc(Nc4nc(NC5CC6(COC6)C5)c(-c5cc[nH]n5)nc4C(N)=O)cc3)CC2)CC1 [compound 627] | ++ (++ indicates an inhibition from 20% to 50%)
CN1CCN(C2CCN(c3ccc(Nc4nc(NC5CC6(COC6)C5)c(-c5cc[nH]n5)nc4C(N)=O)cc3F)CC2)CC1 [compound 628] | ++ (++ indicates an inhibition from 20% to 50%)
CN1CCN(C2CCN(c3ccc(Nc4nc(NC5CC6(COC6)C5)c(-c5ccnc6[nH]ccc56)nc4C(N)=O)cc3)CC2)CC1 [compound 629] | +++ (+++ indicates an inhibition greater than 50%.)
CN1CCN(C2CCN(c3ccc(Nc4nc(NC5CC6(COC6)C5)c(-c5ccnc6[nH]ccc56)nc4C(N)=O)cc3F)CC2)CC1 [compound 630] | +++ (+++ indicates an inhibition greater than 50%.)
CN1CCN(C2CCN(c3ccc(Nc4nc(NC5CC5)c(-c5ccncc5)nc4C(N)=O)cc3)CC2)CC1 [compound 631] | +++ (+++ indicates an inhibition greater than 50%.)
CN1CCN(C2CCN(c3ccc(Nc4nc(NC5CC5)c(-c5ccncc5)nc4C(N)=O)cc3F)CC2)CC1 [compound 632] | +++ (+++ indicates an inhibition greater than 50%.)
CN1CCN(C2CCN(c3ccc(Nc4nc(NC5CC6(COC6)C5)c(-c5ccncc5)nc4C(N)=O)cc3)CC2)CC1 [compound 633] | +++ (+++ indicates an inhibition greater than 50%.)
CN1CCN(C2CCN(c3ccc(Nc4nc(NC5CC6(COC6)C5)c(-c5ccncc5)nc4C(N)=O)cc3F)CC2)CC1 [compound 634] | +++ (+++ indicates an inhibition greater than 50%.)
CC(C)Nc1nc(Nc2ccc(N3CCC(N4CCN(C)CC4)CC3)c(F)c2)c(C(N)=O)nc1-c1ccncc1 [compound 635] | +++ (+++ indicates an inhibition greater than 50%.)
CN1CCN(C2CCN(c3ccc(Nc4nc(NC5CCC5)c(-c5ccncc5)nc4C(N)=O)cc3)CC2)CC1 [compound 638] | +++ (+++ indicates an inhibition greater than 50%.)
CN1CCN(C2CCN(c3ccc(Nc4nc(NC5CCC5)c(-c5ccncc5)nc4C(N)=O)cc3F)CC2)CC1 [compound 639] | +++ (+++ indicates an inhibition greater than 50%.)
CN1CCN(C2CCN(c3ccc(Nc4nc(NC5CCCC5)c(-c5ccncc5)nc4C(N)=O)cc3)CC2)CC1 [compound 640] | +++ (+++ indicates an inhibition greater than 50%.)
CN1CCN(C2CCN(c3ccc(Nc4nc(NC5CCCC5)c(-c5ccncc5)nc4C(N)=O)cc3F)CC2)CC1 [compound 641] | +++ (+++ indicates an inhibition greater than 50%.)
CN1CCN(C2CCN(c3ccc(Nc4nc(N[C@@H]5CCOC5)c(-c5ccncc5)nc4C(N)=O)cc3)CC2)CC1 [compound 642] | +++ (+++ indicates an inhibition greater than 50%.)
CN1CCN(C2CCN(c3ccc(Nc4nc(N[C@@H]5CCOC5)c(-c5ccncc5)nc4C(N)=O)cc3F)CC2)CC1 [compound 643] | +++ (+++ indicates an inhibition greater than 50%.)
CN1CCN(C2CCN(c3ccc(Nc4nc(N[C@H]5CCOC5)c(-c5ccncc5)nc4C(N)=O)cc3)CC2)CC1 [compound 644] | +++ (+++ indicates an inhibition greater than 50%.)
CN1CCN(C2CCN(c3ccc(Nc4nc(N[C@H]5CCOC5)c(-c5ccncc5)nc4C(N)=O)cc3F)CC2)CC1 [compound 645] | +++ (+++ indicates an inhibition greater than 50%.)

From US12600714B2, “Substituted pyrazinecarboxamide compounds for treating diseases related to EGFR mutation” (WIGEN BIOMEDICINE TECHNOLOGY (SHANGHAI) CO., LTD., priority 2020, dated 2026)
